In patent publication US9663508B2, “Biaryl acyl-sulfonamide compounds as sodium channel inhibitors” (AMGEN INC., priority 2013, dated 2017):

target: human Nav1.7 (Homo sapiens (Human), UniProt Q15858); assay: Nav 1.7 in vitro PatchXpress (PX) assay; type: cell-based; conditions: not given
Sequence (Q15858 whole entry): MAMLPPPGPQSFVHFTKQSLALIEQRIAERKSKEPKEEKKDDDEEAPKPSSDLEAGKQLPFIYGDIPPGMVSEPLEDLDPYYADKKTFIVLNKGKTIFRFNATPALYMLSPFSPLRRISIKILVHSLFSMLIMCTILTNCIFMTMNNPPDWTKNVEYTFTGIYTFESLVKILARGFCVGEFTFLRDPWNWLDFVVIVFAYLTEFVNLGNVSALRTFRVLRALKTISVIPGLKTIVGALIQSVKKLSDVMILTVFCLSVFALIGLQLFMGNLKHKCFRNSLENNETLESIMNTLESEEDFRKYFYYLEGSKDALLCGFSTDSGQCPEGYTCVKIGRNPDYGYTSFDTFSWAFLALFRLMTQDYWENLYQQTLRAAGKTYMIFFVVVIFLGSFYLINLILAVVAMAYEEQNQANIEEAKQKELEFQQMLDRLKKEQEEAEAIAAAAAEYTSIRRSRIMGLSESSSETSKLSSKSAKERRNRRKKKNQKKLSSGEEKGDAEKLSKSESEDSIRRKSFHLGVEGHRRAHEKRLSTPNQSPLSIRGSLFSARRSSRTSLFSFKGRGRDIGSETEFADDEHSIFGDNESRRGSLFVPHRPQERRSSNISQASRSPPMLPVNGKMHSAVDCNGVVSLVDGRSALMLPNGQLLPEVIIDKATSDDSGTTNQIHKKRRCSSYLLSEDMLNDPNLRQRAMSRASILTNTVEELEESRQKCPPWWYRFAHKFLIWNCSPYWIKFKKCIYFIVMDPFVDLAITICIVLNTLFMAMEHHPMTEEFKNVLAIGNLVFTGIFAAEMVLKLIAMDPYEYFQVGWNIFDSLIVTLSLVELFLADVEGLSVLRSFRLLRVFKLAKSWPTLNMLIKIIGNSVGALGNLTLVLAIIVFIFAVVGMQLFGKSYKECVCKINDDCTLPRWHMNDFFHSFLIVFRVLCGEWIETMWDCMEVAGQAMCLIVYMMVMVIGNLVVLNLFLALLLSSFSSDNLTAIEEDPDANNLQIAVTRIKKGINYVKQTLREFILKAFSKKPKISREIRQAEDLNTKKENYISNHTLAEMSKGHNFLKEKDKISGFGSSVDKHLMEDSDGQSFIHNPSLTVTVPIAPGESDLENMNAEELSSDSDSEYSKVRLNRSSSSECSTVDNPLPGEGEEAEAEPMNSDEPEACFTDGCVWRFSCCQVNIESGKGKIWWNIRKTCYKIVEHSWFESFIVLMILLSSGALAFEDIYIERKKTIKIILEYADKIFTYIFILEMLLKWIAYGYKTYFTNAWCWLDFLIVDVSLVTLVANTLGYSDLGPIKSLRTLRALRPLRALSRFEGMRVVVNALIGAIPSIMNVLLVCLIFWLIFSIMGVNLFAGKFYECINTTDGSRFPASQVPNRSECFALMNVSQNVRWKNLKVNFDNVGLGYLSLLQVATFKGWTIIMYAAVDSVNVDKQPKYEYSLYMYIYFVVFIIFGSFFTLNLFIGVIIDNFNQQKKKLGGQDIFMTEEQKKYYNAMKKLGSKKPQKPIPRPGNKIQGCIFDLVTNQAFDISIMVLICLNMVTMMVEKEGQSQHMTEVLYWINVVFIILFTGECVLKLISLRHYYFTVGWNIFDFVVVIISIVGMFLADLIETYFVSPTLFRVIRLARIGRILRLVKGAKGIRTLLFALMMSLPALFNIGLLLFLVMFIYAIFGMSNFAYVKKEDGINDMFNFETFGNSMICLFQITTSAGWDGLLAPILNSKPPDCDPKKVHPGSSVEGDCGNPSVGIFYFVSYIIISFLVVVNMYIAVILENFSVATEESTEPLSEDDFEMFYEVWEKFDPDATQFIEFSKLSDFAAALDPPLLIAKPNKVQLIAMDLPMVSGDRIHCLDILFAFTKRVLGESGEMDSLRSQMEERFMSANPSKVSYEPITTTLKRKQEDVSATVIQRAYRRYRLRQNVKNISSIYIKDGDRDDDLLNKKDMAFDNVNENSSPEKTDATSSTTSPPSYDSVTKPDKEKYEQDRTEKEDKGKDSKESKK

SMILES	IC50
COc1cc(C(=O)NS(C)(=O)=O)ccc1-c1cnc(Oc2ccc(Cl)cc2F)c(Cl)c1 [Example 376, 4-(5-chloro-6-(4-chloro-2-fluorophenoxy)-3-pyridinyl)-3-methoxy-N-(methylsulfonyl)benzamide]	60.3 nM
Cc1cc(C(=O)NS(C)(=O)=O)c(F)cc1-c1cnc(Oc2cccc3c2CCCC3)c(Cl)c1 [Example 610, 4-(5-chloro-6-(5,6,7,8-tetrahydro-1-naphthalenyloxy)-3-pyridinyl)-2-fluoro-5-methyl-N-(methylsulfonyl)benzamide]	104 nM
Cc1c(Cl)cccc1Oc1ncc(-c2ccc(C(=O)NS(C)(=O)=O)cc2OC(F)F)cc1Cl [Example 586, 4-(5-chloro-6-(3-chloro-2-methylphenoxy)-3-pyridinyl)-3-(difluoromethoxy)-N-(methylsulfonyl)benzamide]	34.6 nM
COc1cc(C(=O)NS(C)(=O)=O)ccc1-c1cnc(Oc2c(Cl)cc(C)cc2Cl)c(C#N)c1 [Example 693, 4-(5-cyano-6-(2,6-dichloro-4-methylphenoxy)-3-pyridinyl)-3-methoxy-N-(methylsulfonyl)benzamide]	22.1 nM
CCc1cc(Oc2ncc(-c3ccc(C(=O)NS(C)(=O)=O)cc3OC)cc2Cl)ccc1Cl [Example 368, 4-(5-chloro-6-(4-chloro-3-ethylphenoxy)-3-pyridinyl)-3-methoxy-N-(methylsulfonyl)benzamide]	72.3 nM
CS(=O)(=O)NC(=O)c1ccc(-c2cnc(Oc3ccc4ccccc4c3)c(Cl)c2)c(OC(F)F)c1 [Example 446, 4-(5-chloro-6-(2-naphthalenyloxy)-3-pyridinyl)-3-(difluoromethoxy)-N-(methylsulfonyl)benzamide]	74.8 nM

The next lines start with the values.

IC50	SMILES
143 nM	Cc1cc(C(=O)NS(C)(=O)=O)c(F)cc1-c1cnc(Oc2ccc(F)cc2F)c(Cl)c1 [Example 603, 4-(5-chloro-6-(2,4-difluorophenoxy)-3-pyridinyl)-2-fluoro-5-methyl-N-(methylsulfonyl)benzamide]
48.5 nM	CS(=O)(=O)NC(=O)c1cc(F)c(-c2cnc(Oc3c(Cl)cc(Cl)cc3Cl)c(Cl)c2)cc1F [Example 568, 4-(5-chloro-6-(2,4,6-trichlorophenoxy)-3-pyridinyl)-2,5-difluoro-N-(methylsulfonyl)benzamide]
60 nM	Cc1ccc(Oc2ncc(-c3cc(F)c(C(=O)NS(C)(=O)=O)cc3F)cc2Cl)c(F)c1F [Example 569, 4-(5-chloro-6-(2,3-difluoro-4-methylphenoxy)-3-pyridinyl)-2,5-difluoro-N-(methylsulfonyl)benzamide]
75 nM	Cc1cccc(Cl)c1Oc1ncc(-c2ccc(C(=O)NS(C)(=O)=O)cc2OC2COC2)cc1Cl [Example 426, 4-(5-chloro-6-(2-chloro-6-methylphenoxy)-3-pyridinyl)-N-(methylsulfonyl)-3-(3-oxetanyloxy)benzamide]
88.2 nM	COc1cc(C(=O)NS(C)(=O)=O)ccc1-c1cnc(Oc2ccc(F)c(F)c2F)c(Cl)c1 [Example 357, 4-(5-chloro-6-(2,3,4-trifluorophenoxy)-3-pyridinyl)-3-methoxy-N-(methylsulfonyl)benzamide]
102 nM	Cc1cc(C(=O)NS(C)(=O)=O)c(F)cc1-c1cnc(N2CCC[C@@H]2c2cccc(C(F)(F)F)c2)c(Cl)c1 [Example 655, 4-(5-chloro-6-((2R)-2-(3-(trifluoromethyl)phenyl)-1-pyrrolidinyl)-3-pyridinyl)-2-fluoro-5-methyl-N-(methylsulfonyl)benzamide, 4-(5-chloro-6-((2S)-2-(3-(trifluoromethyl)phenyl)-1-pyrrolidinyl)-3-pyridinyl)-2-fluoro-5-methyl-N-(methylsulfonyl)benzamide]
63.6 nM	COc1cc(C(=O)NS(C)(=O)=O)ccc1-c1cnc(Oc2c(F)ccc(F)c2F)c(Cl)c1 [Example 362, 4-(5-chloro-6-(2,3,6-trifluorophenoxy)-3-pyridinyl)-3-methoxy-N-(methylsulfonyl)benzamide]
96.6 nM	COc1cc(C(=O)NS(C)(=O)=O)ccc1-c1cnc(Oc2ccc(F)cc2C)c(Cl)c1 [Example 361, 4-(5-chloro-6-(4-fluoro-2-methylphenoxy)-3-pyridinyl)-3-methoxy-N-(methylsulfonyl)benzamide]
82.3 nM	COc1cc(C(=O)NS(C)(=O)=O)ccc1-c1cnc(Oc2c(C)cccc2Cl)c(Cl)c1 [Example 327, 4-(5-chloro-6-(2-chloro-6-methylphenoxy)-3-pyridinyl)-3-methoxy-N-(methylsulfonyl)benzamide]
84.7 nM	COc1cc(C(=O)NS(C)(=O)=O)ccc1-c1cnc(Oc2ccc(C)c(Cl)c2)c(Cl)c1 [Example 329, 4-(5-chloro-6-(3-chloro-4-methylphenoxy)-3-pyridinyl)-3-methoxy-N-(methylsulfonyl)benzamide]

same assay, conditions: in-vitro Nav 1.7 PX data

SMILES	IC50
COc1cc(C(=O)NS(C)(=O)=O)c(F)cc1-c1cnc(Oc2cc(F)ccc2C)c(Cl)c1 [Example 743, 4-(5-chloro-6-(5-fluoro-2-methylphenoxy)-3-pyridinyl)-2-fluoro-5-methoxy-N-(methylsulfonyl)benzamide]	96.2 nM
COc1cc(C(=O)NS(C)(=O)=O)c(F)cc1-c1cnc(NC2CCC(C)(C)CC2)c(Cl)c1 [Example 724, 4-(5-chloro-6-((4,4-dimethylcyclohexyl)amino)-3-pyridinyl)-2-fluoro-5-methoxy-N-(methylsulfonyl)benzamide]	106 nM
COc1cc(C(=O)NS(C)(=O)=O)c(F)cc1-c1cnc(O[C@H](C)c2ccc(F)cc2Cl)c(Cl)c1 [Example 761, 4-(5-chloro-6-((1R)-1-(2-chloro-4-fluorophenyl)ethoxy)-3-pyridinyl)-2-fluoro-5-methoxy-N-(methylsulfonyl)benzamide]	82.1 nM
Cc1cc(C(=O)NS(C)(=O)=O)c(F)cc1-c1cnc(NC(C)(C)C)c(Cl)c1 [Example 815, 4-(6-(tert-butylamino)-5-chloro-3-pyridinyl)-2-fluoro-5-methyl-N-(methylsulfonyl)benzamide]	231 nM
COc1cc(C(=O)NS(C)(=O)=O)c(F)cc1-c1cnc(Oc2cc(F)ccc2F)c(Cl)c1 [Example 706, 4-(5-chloro-6-(2,5-difluorophenoxy)-3-pyridinyl)-2-fluoro-5-methoxy-N-(methylsulfonyl)benzamide]	130 nM
COc1cc(C(=O)NS(C)(=O)=O)c(F)cc1-c1cnc(Sc2ccc(C)cc2)c(Cl)c1 [Example 728, 4-(5-chloro-6-((4-methylphenyl)sulfanyl)-3-pyridinyl)-2-fluoro-5-methoxy-N-(methylsulfonyl)benzamide]	49.5 nM
COc1cc(C(=O)NS(C)(=O)=O)c(F)cc1-c1cnc(O[C@H](C)c2ccccc2)c(Cl)c1 [Example 749, 4-(5-chloro-6-((1R)-1-phenylethoxy)-3-pyridinyl)-2-fluoro-5-methoxy-N-(methylsulfonyl)benzamide]	93.6 nM
COc1cc(C(=O)NS(C)(=O)=O)ccc1-c1cnc(COc2ccc(C#N)cc2)c(Cl)c1 [Example 819, 4-(5-Chloro-6-((4-Cyanophenoxy)Methyl)-Pyridin-3-yl)-3-Methoxy-N-(Methylsulfonyl)Benzamide]	6560 nM
COc1cc(C(=O)NS(C)(=O)=O)c(F)cc1-c1cnc(Oc2cc(C)ccc2Cl)c(Cl)c1 [Example 752, 4-(5-chloro-6-(2-chloro-5-methylphenoxy)-3-pyridinyl)-2-fluoro-5-methoxy-N-(methylsulfonyl)benzamide]	42.1 nM

The remaining lines, values ahead:

IC50	SMILES
618 nM	Cc1cc(C(=O)NS(C)(=O)=O)c(F)cc1-c1ccc(Cl)c(C(F)(F)F)c1 [Example 806, 4′-Chloro-5-Fluoro-2-Methyl-N-(Methylsulfonyl)-3′-(Trifluoromethyl)-4-Biphenylcarboxamide]
123 nM	CCS(=O)(=O)NC(=O)c1ccc(-c2cnc(OC3CCC3)c(Cl)c2)c(OC)c1 [Example 790, 4-(5-chloro-6-(cyclobutyloxy)-3-pyridinyl)-N-(ethylsulfonyl)-3-methoxybenzamide]
647 nM	Cc1cc(C(=O)NS(C)(=O)=O)c(F)cc1-c1ccc2c(c1)OC(F)(F)O2 [Example 809, 4-(2,2-difluoro-1,3-benzodioxol-5-yl)-2-fluoro-5-methyl-N-(methylsulfonyl)benzamide]
220 nM	COc1cc(C(=O)NS(C)(=O)=O)c(F)cc1-c1cnc(O[C@@H]2CC[C@H]2C)c(Cl)c1 [Example 733, 4-(5-chloro-6-(((1R,2R)-2-methylcyclobutyl)oxy)-3-pyridinyl)-2-fluoro-5-methoxy-N-(methylsulfonyl)benzamide, 4-(5-chloro-6-(((1S,2S)-2-methylcyclobutyl)oxy)-3-pyridinyl)-2-fluoro-5-methoxy-N-(methylsulfonyl)benzamide]
83.6 nM	COc1cc(C(=O)NS(C)(=O)=O)c(F)cc1-c1cnc(Oc2cc(Cl)ccc2F)c(Cl)c1 [Example 747, 4-(5-chloro-6-(5-chloro-2-fluorophenoxy)-3-pyridinyl)-2-fluoro-5-methoxy-N-(methylsulfonyl)benzamide]
56 nM	COc1cc(C(=O)NS(C)(=O)=O)c(F)cc1-c1cnc(Oc2ccc(F)c(Cl)c2)c(Cl)c1 [Example 741, 4-(5-chloro-6-(3-chloro-4-fluorophenoxy)-3-pyridinyl)-2-fluoro-5-methoxy-N-(methylsulfonyl)benzamide]
87.2 nM	COc1cc(C(=O)NS(C)(=O)=O)c(F)cc1-c1cnc(NCC2CCC(C)(C)CC2)c(Cl)c1 [Example 721, 4-(5-chloro-6-(((4,4-dimethylcyclohexyl)methyl)amino)-3-pyridinyl)-2-fluoro-5-methoxy-N-(methylsulfonyl)benzamide]
27.5 nM	Cc1cc(Cl)cc(Cl)c1Oc1ncc(-c2ccc(C(=O)NS(C)(=O)=O)cc2Br)cc1Cl [Example 794, 3-bromo-4-(5-chloro-6-(2,4-dichloro-6-methylphenoxy)-3-pyridinyl)-N-(methylsulfonyl)benzamide]
36.9 nM	COc1cc(C(=O)NS(C)(=O)=O)c(F)cc1-c1cnc(Oc2ccc(Cl)cc2F)c(Cl)c1 [Example 753, 4-(5-chloro-6-(4-chloro-2-fluorophenoxy)-3-pyridinyl)-2-fluoro-5-methoxy-N-(methylsulfonyl)benzamide]
